Tests used:
Format in all cases: in vivo, human
[1] = tested on: patients with Parkinson's Disease and dyskinesias; assay: Treatment of seven patients with Parkinson's Disease and dyskinesias with sildenafil (Example III)
Description: Seven additional patients with Parkinson's Disease and dyskinesias were treated with sildenafil at a dose of 25 mg per day in addition to their usual Parkinson's Disease medications. The patents were all Caucasian and ranged in age from between 55 to 70 years. Four of the patients were men and three were women.

[2] = tested on: patient who had Parkinson's Disease and severe dyskinesia; assay: Treatment of a Parkinson's Disease patient with severe dyskinesia with sildenafil (Example I); details: one patient
Description: A patient who had Parkinson's Disease for twelve years and who suffered from severe dyskinesia affecting all their extremities and their head and neck for five years was treated with the method for decreasing neurologic symptomatology according to the present invention. […] The patient was initially treated with 50 mg of sildenafil per day.

[3] = tested on: patient who had Parkinson's Disease with tremor at rest and gait disturbance; assay: Treatment of a Parkinson's Disease patient with tremor at rest and gait disturbance with sildenafil (Example II); details: one patient
Description: A patient who had Parkinson's Disease for fifteen years and who suffered from tremor at rest and gait disturbance was treated with the method for decreasing neurologic symptomatology according to the present invention. […] The patient was initially treated with 25 mg of sildenafil per day.

[4] = 25 mg sildenafil per day, after five months of treatment, on levodopa

SMILES: CCCc1nn(C)c2c(=O)[nH]c(-c3cc(S(=O)(=O)N4CCN(C)CC4)ccc3OCC)nc12 [sildenafil]
- patients reporting facial flushing ([1]; 25 mg per day): one
- patients with any significant side effects of sildenafil treatment ([1]; 25 mg per day): None
- patients with any worsening of their Parkinson's Disease symptoms ([1]; 25 mg per day): None
- patients with significant improvement in their dyskinesias ([1]; 25 mg per day in addition to usual Parkinson's Disease medications): Five of the seven
- dyskinesias during treatment ([2]; 50 mg sildenafil per day initially, on levodopa): significantly reduced
- signs and symptoms of Parkinson's Disease ([2]; after more than one year of treatment, sildenafil decreased to 25 mg, levodopa 300-400 mg per day): significantly improved
- gait disturbance [3, 4]: improved significantly
- tremor [3, 4]: ceased
- signs and symptoms of Parkinson's Disease ([3]; after more than seven months of treatment, sildenafil 25 mg three times per day, levodopa 250 mg per day): significantly improved
